What was measured:
[1] = molecular target: T1, TGF-beta receptor type-1 (Homo sapiens, UniProt P36897); experiment: Inhibition of TGFbeta receptor
T1 sequence (P36897 whole entry): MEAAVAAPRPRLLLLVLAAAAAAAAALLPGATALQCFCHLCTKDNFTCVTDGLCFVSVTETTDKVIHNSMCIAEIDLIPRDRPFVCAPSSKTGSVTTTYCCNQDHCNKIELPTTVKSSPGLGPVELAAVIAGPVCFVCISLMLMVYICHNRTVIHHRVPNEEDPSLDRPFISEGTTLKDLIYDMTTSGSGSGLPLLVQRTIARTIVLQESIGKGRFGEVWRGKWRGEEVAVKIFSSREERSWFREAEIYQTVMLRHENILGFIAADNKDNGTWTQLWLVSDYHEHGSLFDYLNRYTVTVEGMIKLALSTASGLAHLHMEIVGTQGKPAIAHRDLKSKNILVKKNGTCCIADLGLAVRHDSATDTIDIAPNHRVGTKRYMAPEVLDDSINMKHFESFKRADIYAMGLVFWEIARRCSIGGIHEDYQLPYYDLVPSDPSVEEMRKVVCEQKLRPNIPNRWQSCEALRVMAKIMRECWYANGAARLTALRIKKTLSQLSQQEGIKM

[2] = molecular target: T1, TGF-beta receptor type-1; experiment: Inhibition of TGFbeta receptor in human HaCaT cells assessed as Smad phosphorylation by ELISA; format: cell-based
[3] = molecular target: Platelet-derived growth factor receptor alpha (Homo sapiens, UniProt P16234); experiment: Inhibition of PDGFRalpha
Sequence of Platelet-derived growth factor receptor alpha (P16234 whole entry): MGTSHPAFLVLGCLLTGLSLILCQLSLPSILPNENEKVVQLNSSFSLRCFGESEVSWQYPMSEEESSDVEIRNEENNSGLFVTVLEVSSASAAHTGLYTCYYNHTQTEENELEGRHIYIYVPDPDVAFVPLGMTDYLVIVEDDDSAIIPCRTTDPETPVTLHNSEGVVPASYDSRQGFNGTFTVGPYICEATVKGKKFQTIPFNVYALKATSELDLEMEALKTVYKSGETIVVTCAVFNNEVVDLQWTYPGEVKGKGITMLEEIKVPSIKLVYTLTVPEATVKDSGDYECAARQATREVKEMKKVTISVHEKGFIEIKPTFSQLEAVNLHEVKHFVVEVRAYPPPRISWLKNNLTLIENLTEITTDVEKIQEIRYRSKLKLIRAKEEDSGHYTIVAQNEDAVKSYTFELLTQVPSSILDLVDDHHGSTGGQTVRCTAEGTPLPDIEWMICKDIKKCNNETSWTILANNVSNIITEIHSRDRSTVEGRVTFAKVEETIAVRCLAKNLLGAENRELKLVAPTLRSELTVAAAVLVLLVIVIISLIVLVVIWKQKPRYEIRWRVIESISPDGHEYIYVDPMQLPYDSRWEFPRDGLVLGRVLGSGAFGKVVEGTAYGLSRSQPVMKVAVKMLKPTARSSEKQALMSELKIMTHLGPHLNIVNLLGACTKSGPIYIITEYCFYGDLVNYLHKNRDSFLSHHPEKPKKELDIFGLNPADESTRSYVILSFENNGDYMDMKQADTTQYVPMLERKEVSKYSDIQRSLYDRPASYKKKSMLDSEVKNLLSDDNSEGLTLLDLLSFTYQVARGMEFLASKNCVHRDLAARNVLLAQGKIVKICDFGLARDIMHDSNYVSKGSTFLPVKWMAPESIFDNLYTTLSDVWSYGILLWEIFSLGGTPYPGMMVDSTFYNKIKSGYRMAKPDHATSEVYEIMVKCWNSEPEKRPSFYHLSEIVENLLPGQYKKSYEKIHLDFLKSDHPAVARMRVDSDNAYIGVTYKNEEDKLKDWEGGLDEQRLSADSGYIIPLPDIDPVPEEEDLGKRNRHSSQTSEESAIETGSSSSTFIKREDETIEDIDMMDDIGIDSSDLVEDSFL

[4] = tested on: HaCaT; experiment: Cytotoxicity against human HaCaT cells

CCNC(=O)c1ccc2c(c1)NC(=O)/C2=C(\Nc1ccc(N(C)C(=O)CN2CCN(C)CC2)cc1)c1ccccc1
IC50 [1]: 9 nM
EC50 [2]: 1370 nM

CCNC(=O)c1ccc2c(c1)NC(=O)/C2=C\Nc1ccc(CN2CCCCC2)cc1
IC50 [1]: 69 nM
EC50 [2]: 376 nM

NC(=O)c1ccc2c(c1)NC(=O)/C2=C(\Nc1ccc(CN2CCCCC2)cc1)c1ccccc1
IC50 [1]: 369 nM
EC50 [2]: > 50000 nM

CCNC(=O)c1ccc2c(c1)NC(=O)/C2=C(\Nc1ccc(N(CCCN(C)C)C(C)=O)cc1)c1ccccc1
IC50 [1]: 3 nM
EC50 [2]: 1250 nM

CCNC(=O)c1ccc2c(c1)NC(=O)/C2=C(\Nc1ccc(N(C)C(=O)CN(C)C)cc1)c1ccccc1
IC50 [1]: 35 nM
EC50 [2]: 3380 nM

CCN(C)C(=O)c1ccc2c(c1)NC(=O)/C2=C(\Nc1ccc(N(C)S(C)(=O)=O)cc1)c1ccccc1
IC50 [1]: 231 nM
EC50 [2]: > 10000 nM

CCNC(=O)c1ccc2c(c1)NC(=O)/C2=C(\Nc1ccc(N(CCN(C)C)C(C)=O)cc1)c1ccccc1
IC50 [1]: 3 nM
EC50 [2]: 1070 nM

CCN(CC)C(=O)c1ccc2c(c1)NC(=O)/C2=C(\Nc1ccc(CN2CCCCC2)cc1)c1ccccc1
IC50 [1]: 625 nM

CCN(C)C(=O)c1ccc2c(c1)NC(=O)/C2=C(\Nc1ccc(C(=O)OC)cc1)c1ccccc1
IC50 [1]: 1970 nM

CCN(C)C(=O)c1ccc2c(c1)NC(=O)/C2=C(\NC1CCCCC1)c1ccccc1
IC50 [1]: > 50000 nM
IC50 [3]: > 5000 nM
EC50 [2]: > 10000 nM

CNC(=O)c1ccc2c(c1)NC(=O)/C2=C(\Nc1ccc(CN2CCCCC2)cc1)c1ccccc1
IC50 [1]: 32 nM

CN(C)C(=O)c1ccc2c(c1)NC(=O)/C2=C(\Nc1ccc(CN2CCCCC2)cc1)c1ccccc1
IC50 [1]: 35 nM
EC50 [2]: 246 nM

CCN(C)C(=O)c1ccc2c(c1)NC(=O)/C2=C(\NC1CCN(C)CC1)c1ccccc1
IC50 [1]: > 50000 nM
IC50 [3]: > 5000 nM
EC50 [2]: > 10000 nM

CCN(C)C(=O)c1ccc2c(c1)NC(=O)/C2=C(\Nc1ccc(C(=O)O)cc1)c1ccccc1
IC50 [1]: 782 nM

CCNC(=O)c1ccc2c(c1)NC(=O)/C2=C(\Nc1ccc(CCN(C)C)cc1)c1ccccc1
IC50 [1]: 47 nM
EC50 [2]: 135 nM

CCN(C)C(=O)c1ccc2c(c1)NC(=O)/C2=C(\Nc1ccc(N(C)C(=O)CN2CCN(C)CC2)cc1)c1ccccc1
IC50 [1]: 7 nM
EC50 [2]: 833 nM

CCNC(=O)c1ccc2c(c1)NC(=O)/C2=C\Nc1ccc(N(C)C(=O)CN(C)C)cc1
IC50 [1]: 52 nM
EC50 [2]: 4360 nM

CCN(C)C(=O)c1ccc2c(c1)NC(=O)/C2=C(\Nc1ccc(N(C)C(=O)CN(C)C)cc1)c1ccccc1
IC50 [1]: 29 nM
EC50 [2]: 382 nM

CCN(C)C(=O)c1ccc2c(c1)NC(=O)/C2=C(\Nc1ccccc1)c1ccccc1
IC50 [1]: 2590 nM
IC50 [3]: > 5000 nM

CCNC(=O)c1ccc2c(c1)NC(=O)/C2=C\Nc1ccc(N(CCCN(C)C)C(C)=O)cc1
IC50 [1]: 17 nM
EC50 [2]: 597 nM

CCN(CC)CCNC(=O)c1ccc(N/C(=C2\C(=O)Nc3cc(C(=O)N(C)CC)ccc32)c2ccccc2)cc1
IC50 [1]: 64 nM
EC50 [2]: 542 nM

CC(C)NC(=O)c1ccc2c(c1)NC(=O)/C2=C(\Nc1ccc(CN2CCCCC2)cc1)c1ccccc1
IC50 [1]: 318 nM
EC50 [2]: 708 nM

O=C1Nc2cc(C(=O)NCc3ccccc3)ccc2/C1=C(/Nc1ccc(CN2CCCCC2)cc1)c1ccccc1
IC50 [1]: 1530 nM

CCN(C)C(=O)c1ccc2c(c1)NC(=O)/C2=C(\Nc1ccc(N(CC(=O)N(C)C)S(C)(=O)=O)cc1)c1ccccc1
IC50 [1]: 86 nM
EC50 [2]: > 3000 nM

O=C1Nc2cc(C(=O)N3CCCC3)ccc2/C1=C(/Nc1ccc(CN2CCCCC2)cc1)c1ccccc1
IC50 [1]: 245 nM
EC50 [2]: 696 nM

CCCCNC(=O)c1ccc2c(c1)NC(=O)/C2=C(\Nc1ccc(CN2CCCCC2)cc1)c1ccccc1
IC50 [1]: 91 nM
EC50 [2]: 1060 nM

CCNC(=O)c1ccc2c(c1)NC(=O)/C2=C(\Nc1ccc(C(=O)NCCN(CC)CC)cc1)c1ccccc1
IC50 [1]: 33 nM
EC50 [2]: 505 nM

CCN(C)C(=O)c1ccc2c(c1)NC(=O)/C2=C(\Nc1ccc(N(CCN(C)C)S(C)(=O)=O)cc1)c1ccccc1
IC50 [1]: 7 nM
EC50 [2]: 209 nM

CCN(CC)Cc1cccc(N/C(=C2\C(=O)Nc3cc(C(=O)N(C)CC)ccc32)c2ccccc2)c1
IC50 [1]: 616 nM

O=C1Nc2cc(C(=O)NCCO)ccc2/C1=C(/Nc1ccc(CN2CCCCC2)cc1)c1ccccc1
IC50 [1]: 430 nM
EC50 [2]: > 50000 nM

CCNC(=O)c1ccc2c(c1)NC(=O)/C2=C\Nc1ccc(N(C)C(=O)CN2CCN(C)CC2)cc1
IC50 [1]: 15 nM
IC50 [3]: > 5000 nM
EC50 [2]: 2180 nM

CCN(C)C(=O)c1ccc2c(c1)NC(=O)/C2=C(\Nc1ccc(N(CCN(C)C)C(C)=O)cc1)c1ccccc1
IC50 [1]: 8 nM
EC50 [2]: 102 nM

CCN(C)C(=O)c1ccc2c(c1)NC(=O)/C2=C(\Nc1ccc(N(CCCN(C)C)C(C)=O)cc1)c1ccccc1
IC50 [1]: 9 nM
EC50 [2]: 411 nM

CCNC(=O)c1ccc2c(c1)NC(=O)/C2=C(\Nc1ccc(CN2CCCCC2)cc1)c1ccccc1
IC50 [1]: 24 nM
EC50 [2]: 75 nM

CCN(C)C(=O)c1ccc2c(c1)NC(=O)/C2=C(\Nc1ccc(CCN(C)C)cc1)c1ccccc1
IC50 [1]: 64 nM
EC50 [2]: 259 nM
IC50 [4]: > 1000 nM

From ChEMBL document CHEMBL1268952, “Design, synthesis, and evaluation of indolinones as inhibitors of the transforming growth factor β receptor I (TGFβRI)” (J Med Chem, 2010)
